Assay results reported in patent publication US8637568B2, “Serotonin reuptake inhibitors” (Theravance, Inc., priority 2010, dated 2014).

Biological target: T1, human recombinant SERT (HEK293-hSERT cells) (Homo sapiens, UniProt P31645)
T1 construct: expressed in transfected cells; host or cells: HEK293 (stably transfected), whole cells
Assay: hSERT neurotransmitter uptake assay
Format: cell-based
Conditions: serotonin reuptake inhibition in HEK293-hSERT cells; for IC50: read-out: SERT pIC50 (converted)
Protocol: HEK293 cells stably-transfected with human recombinant SERT (HEK293-hSERT) were grown in Dulbecco's Modified Eagle's Medium supplemented with 10% dialyzed fetal bovine serum, 100 µg/ml penicillin, 100 µg/ml streptomycin, 2 mM L-glutamine, and 250 μg/ml of the aminoglycoside antibiotic G418. Cells were incubated in a 5% CO2, humidified incubator at 37° C.
In pre-incubation studies, test compound was added to cells for 30 minutes at 37° C. prior to the addition of fluorescent substrate. […] For real-time measurements, compounds were either preincubated (as above) or mixed with substrate prior to addition, and kinetic measurements, relative fluorescence units (RFU integrated over 0.5 ms),were made using a cycle time of 1 min.

T1 sequence (P31645 whole entry): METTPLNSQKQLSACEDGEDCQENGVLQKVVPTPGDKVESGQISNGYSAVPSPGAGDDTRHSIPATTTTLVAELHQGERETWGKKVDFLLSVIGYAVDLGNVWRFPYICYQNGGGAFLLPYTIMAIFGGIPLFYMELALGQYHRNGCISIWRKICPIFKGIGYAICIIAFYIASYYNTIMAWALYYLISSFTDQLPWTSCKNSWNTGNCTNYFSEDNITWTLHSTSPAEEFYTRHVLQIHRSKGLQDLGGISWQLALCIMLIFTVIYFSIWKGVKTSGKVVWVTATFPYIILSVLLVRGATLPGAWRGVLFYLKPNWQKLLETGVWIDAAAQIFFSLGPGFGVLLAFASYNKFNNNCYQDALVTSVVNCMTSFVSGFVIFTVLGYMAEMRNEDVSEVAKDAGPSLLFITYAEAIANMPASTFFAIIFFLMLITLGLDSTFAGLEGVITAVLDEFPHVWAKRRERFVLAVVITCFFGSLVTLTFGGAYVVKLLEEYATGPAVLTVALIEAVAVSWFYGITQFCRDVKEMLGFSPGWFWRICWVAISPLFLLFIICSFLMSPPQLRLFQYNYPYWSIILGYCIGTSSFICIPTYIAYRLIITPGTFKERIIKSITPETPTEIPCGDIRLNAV

SMILES	IC50	SERT pIC50
CS(=O)(=O)NC[C@@H](Oc1ccc(C(F)(F)F)cc1)[C@@H]1CCNC1 (stereo in doubt) [Example 3-2, N-[(R)-2-(S)-Pyrrolidin-3-yl-2-(4-trifluoromethylphenoxy)ethyl]-methanesulfonamide]	≤ 0.1 µM	
O=S(=O)(NC[C@@H](Oc1ccc(C(F)(F)F)cc1)[C@@H]1CCNC1)c1ccccc1 (stereo in doubt) [Example 3-18, N-[(R)-2-(S)-Pyrrolidin-3-yl-2-(4-trifluoromethylphenoxy)ethyl]benzenesulfonamide]	≤ 0.01 µM	
CNS(=O)(=O)N(C)C[C@@H](Oc1ccc(C(F)(F)F)cc1)[C@H]1CCNC1 [Example 1]	≤ 0.01 µM	
O=S(=O)(NC[C@@H](Oc1ccc(C(F)(F)F)cc1)[C@H]1CCNC1)c1ccc(-c2cnco2)cc1 [Example 2, 4-Oxazol-5-yl-N—[(S)-2-(S)-pyrrolidin-3-yl-2-(4-trifluoromethylphenoxy)ethyl]benzenesulfonamide]	≤ 0.01 µM	
CN(C[C@@H](Oc1ccc(C(F)(F)F)cc1)[C@H]1CCNC1)S(C)(=O)=O [Example 3-3, N-Methyl-N-[(S)-2-(S)-pyrrolidin-3-yl-2-(4-trifluoromethylphenoxy)ethyl]-methanesulfonamide]	≤ 0.01 µM	
CCS(=O)(=O)NC[C@@H](Oc1ccc(C(F)(F)F)cc1)[C@H]1CCNC1 [Example 3-5, Ethanesulfonic acid [(S)-2-(S)-pyrrolidin-3-yl-2-(4-trifluoromethylphenoxy)-ethyl]amide]	≤ 0.01 µM	
CC(C)S(=O)(=O)NC[C@@H](Oc1ccc(C(F)(F)F)cc1)[C@H]1CCNC1 [Example 3-7, Propane-2-sulfonic acid [(S)-2-(S)-pyrrolidin-3-yl-2-(4-trifluoromethylphenoxy)ethyl]amide]	≤ 0.1 µM	
O=S(=O)(NC[C@@H](Oc1ccc(C(F)(F)F)cc1)[C@H]1CCNC1)C1CC1 [Example 3-8, Cyclopropanesulfonic acid [(S)-2-(S)-pyrrolidin-3-yl-2-(4-trifluoromethylphenoxy)ethyl]amide]	≤ 0.01 µM	
NC(=O)NS(=O)(=O)NC[C@@H](Oc1ccc(C(F)(F)F)cc1)[C@H]1CCNC1 [Example 3-10, N[(S)-2-(S)-pyrrolidin-3-yl-2-(4-trifluoromethylphenoxy)ethyl]sulfonylurea]		≧7.0
CN(C)S(=O)(=O)NC[C@@H](Oc1ccc(C(F)(F)F)cc1)[C@H]1CCNC1 [Example 3-11]	≤ 0.01 µM	
CS(=O)(=O)CS(=O)(=O)NC[C@@H](Oc1ccc(C(F)(F)F)cc1)[C@H]1CCNC1 [Example 3-12, C-Methanesulfonyl-N-[(S)-2-(S)-pyrrolidin-3-yl-2-(4-trifluoromethylphenoxy)ethyl]methanesulfonamide]	≤ 0.01 µM	
O=S(=O)(NC[C@@H](Oc1ccc(C(F)(F)F)cc1)[C@H]1CCNC1)c1cnc[nH]1 [Example 3-13, 3H-Imidazole-4-sulfonic acid [(S)-2-(S)-pyrrolidin-3-yl-2-(4-trifluoromethylphenoxy)ethyl]amide]	≤ 0.1 µM	
Cn1cncc1S(=O)(=O)NC[C@@H](Oc1ccc(C(F)(F)F)cc1)[C@H]1CCNC1 [Example 3-14, 3-Methyl-3H-imidazole-4-sulfonic acid [(S)-2-(S)-pyrrolidin-3-yl-2-(4-trifluoromethylphenoxy)ethyl]amide]	≤ 0.1 µM	
O=S(=O)(NC[C@@H](Oc1ccc(C(F)(F)F)cc1)[C@H]1CCNC1)c1ncn[nH]1 [Example 3-15]	≤ 0.1 µM	
O=S(=O)(NC[C@@H](Oc1ccc(C(F)(F)F)cc1)[C@H]1CCNC1)c1cccc2nonc12 [Example 3-16, Benzo[1,2,5]oxadiazole-4-sulfonic acid [(S)-2-(S)-pyrrolidin-3-yl-2-(4-trifluoromethylphenoxy)ethyl]amide]	≤ 0.01 µM	
O=S(=O)(NC[C@@H](Oc1ccc(C(F)(F)F)cc1)[C@H]1CCNC1)N1CCOCC1 [Example 3-17, Morpholine-4-sulfonic acid [(S)-2-(S)-pyrrolidin-3-yl-2-(4-trifluoromethylphenoxy)ethyl]amide]	≤ 0.01 µM	
O=S(=O)(NC[C@@H](Oc1ccc(C(F)(F)F)cc1)[C@H]1CCNC1)c1ccccc1 [Example 3-19, N-[(S)-2-(S)-Pyrrolidin-3-yl-2-(4-trifluoromethylphenoxy)ethyl]benzenesulfonamide]	≤ 0.01 µM	
N#Cc1ccc(S(=O)(=O)NC[C@@H](Oc2ccc(C(F)(F)F)cc2)[C@H]2CCNC2)cc1 [Example 3-20, 4-Cyano-N-[(S)-2-(S)-pyrrolidin-3-yl-2-(4-trifluoromethylphenoxy)ethyl]benzenesulfonamide]	≤ 0.01 µM	

SMILES	IC50	SERT pIC50
O=[N+]([O-])c1ccc(S(=O)(=O)NC[C@@H](Oc2ccc(C(F)(F)F)cc2)[C@H]2CCNC2)cc1 [Example 3-22, 4-Nitro-N-[(S)-2-(S)-pyrrolidin-3-yl-2-(4-trifluoromethylphenoxy)ethyl]benzenesulfonamide]	≤ 0.01 µM	
COc1ccc(S(=O)(=O)NCC(Oc2ccc(C(F)(F)F)cc2)C2CCNC2)cc1 [Example 3-23, 4-Methoxy-N-[(S)-2-(S)-pyrrolidin-3-yl-2-(4-trifluoromethylphenoxy)ethyl]bensenesulfonamide]	≤ 0.01 µM	
COCCc1ccc(S(=O)(=O)NC[C@@H](Oc2ccc(C(F)(F)F)cc2)[C@H]2CCNC2)cc1 [Example 3-24, 4-(2-Methoxyethyl)-N-[(S)-2-(S)-pyrrolidin-3-yl-2-(4-trifluoromethylphenoxy)ethyl]benzenesulfonamide]	≤ 0.01 µM	
CNC(=O)c1cccc(S(=O)(=O)NCC(Oc2ccc(C(F)(F)F)cc2)C2CCNC2)c1 [Example 3-25, N-Methyl-3-[(S)-2-(S)--pyrrolidin-3-yl-2-(4-trifluoromethylphenoxy)ethylsulfamoyl]benamide]	≤ 0.01 µM	
CC(=O)Nc1cccc(S(=O)(=O)NC[C@@H](Oc2ccc(C(F)(F)F)cc2)[C@H]2CCNC2)c1 [Example 3-26, N-{3-[(S)-2-(S)-Pyrrolidin-3-yl-2-(4-trifluoromethylphenoxy)ethylsulfamoyl]phenyl}acetamide]	≤ 0.01 µM	
CS(=O)(=O)c1ccc(S(=O)(=O)NC[C@@H](Oc2ccc(C(F)(F)F)cc2)[C@H]2CCNC2)cc1 [Example 3-27, 4-Methanesulfonyl-N-[(S)-2-(S)-pyrrolidin-3-yl-2-(4-trifluoromethylphenoxy)ethyl]benzenesulfonamide]	≤ 0.01 µM	
CS(=O)(=O)c1cccc(S(=O)(=O)NC[C@@H](Oc2ccc(C(F)(F)F)cc2)[C@H]2CCNC2)c1 [Example 3-28, 3-Methanesulfonyl-N-[(S)-2-(S)-pyrrolidin-3-yl-2-(4-trifluoromethylphenoxy)ethyl]benzenesulfonamide]	≤ 0.1 µM	
CS(=O)(=O)c1ccccc1S(=O)(=O)NC[C@@H](Oc1ccc(C(F)(F)F)cc1)[C@H]1CCNC1 [Example 3-29, 2-Methanesulfonyl-N-[(S)-2-(S)-pyrrolidin-3-yl-2-(4-trifluoromethylphenoxy)ethyl]benzenesulfonamide]	≤ 0.01 µM	
NS(=O)(=O)c1ccc(S(=O)(=O)NCC(Oc2ccc(C(F)(F)F)cc2)C2CCNC2)cc1 [Example 3-30, Benzene-1,4-disulfonic acid lamide 4-{[(S)-2-(S)-pyrrolidin-3-yl-2-(4-trifluoromethylphenoxy)ethyl]amide}]	≤ 0.01 µM	
CNS(=O)(=O)c1ccc(S(=O)(=O)NCC(Oc2ccc(C(F)(F)F)cc2)C2CCNC2)cc1 [Example 3-31, Benzene-1,4-disulfonic acid 1-methylamide 4-{[(S)-2-(S)-pyrrolidin-3-yl-2-(4-trifluoromethylphenoxy)ethyl]amide}]	≤ 0.01 µM	
O=S(=O)(NC[C@@H](Oc1ccc(C(F)(F)F)cc1)[C@H]1CCNC1)c1ccc(-n2cccn2)cc1 [Example 3-32, 4-Pyrazol-1-yl-N-[(S)-2-(S)-pyrrolidin-3-yl-2-(4-trifluoromethylphenoxy)ethyl]benzenesulfonamide]	≤ 0.01 µM	
Cc1cc(C)n(-c2ccc(S(=O)(=O)NCC(Oc3ccc(C(F)(F)F)cc3)C3CCNC3)cc2)n1 [Example 3-33, 4-(3,5-Dimethyl-pyrazol-1-yl)-N-(S)-2-(S)-pyrrolidin-3-yl-2-(4-trifluoromethylphenoxy)ethyl]benzenesulfonamide]	≤ 0.01 µM	
O=S(=O)(NC[C@@H](Oc1ccc(C(F)(F)F)cc1)[C@H]1CCNC1)c1ccc(-c2ncccn2)cc1 [Example 3-34, 4-Pyrimidin-2-yl-N-[(S)-2-(S)-pyrrolidin-3-yl-2-(4-trifluoromethylphenoxy)ethyl]benzenesulfonamide]	≤ 0.01 µM	
O=S(=O)(NCC(Oc1ccc(C(F)(F)F)cc1)C1CCNC1)c1ccc(-c2nnn[nH]2)cc1 [Example 3-35, N[(S)-2-(S)-Pyrrolidin-3-yl-2-(4-trifluoromethylphenoxy)ethyl]-4-(1H-tetrazol-5-yl)-benzenesulfonamide]	≤ 0.1 µM	
NS(=O)(=O)C[C@@H](Oc1ccc(C(F)(F)F)cc1)[C@H]1CCNC1 [Example 4, (S)-2-(S)-Pyrrolidin-3-yl-2-(4-trifluoromethylphenoxy)ethanesulfonic Acid Amide]	≤ 0.01 µM	
O=S(=O)(C[C@@H](Oc1ccc(C(F)(F)F)cc1)[C@H]1CCNC1)NCc1ccccc1 [Example 5, (S)-2-(S)-Pyrrolidin-3-yl-2-(4-trifluoromethylphenoxy)ethanesulfonic Acid Benzylamide]	≤ 0.01 µM	
CNS(=O)(=O)C[C@@H](Oc1ccc(C(F)(F)F)cc1)[C@H]1CCNC1 [Example 6, (S)-2-(S)-Pyrrolidin-3-yl-2-(4-trifluoromethylphenoxy)ethanesulfonic Acid Methylamide]	≤ 0.01 µM	
